Results: paper PMC8745314, “Novel Tetrazole-Based Antimicrobial Agents Targeting Clinical Bacteria Strains: Exploring the Inhibition of Staphylococcus aureus DNA Topoisomerase IV and Gyrase” (International Journal of Molecular Sciences, 2021)
≈ marks a conversion by molar mass, not a printed value.

Assays:
[1] = system: E. coli ATCC 25922; test: MIC broth microdilution, standard strain; format: cell-based; conditions: Escherichia coli, ATCC25922; E. coli ATCC 25922, standard strain, 19 h at 35 °C; read-out: minimal inhibitory concentration (MIC)
Procedure: (§1) All synthesized compounds were tested in vitro against a set of bacteria, including representative standard Gram-positive and Gram-negative rods. Compounds were screened for their minimal inhibitory concentrations (MICs). […] These three compounds were also found to be good inhibitors of the growth of Gram-negative rods: […] The antimicrobial assays were conducted using reference strains of bacteria derived from international microbe collections: American Type Culture Collection (ATCC) and National Collection of Type Culture (NCTC). The following standard strains of bacteria were used: Gram-positive-Staphylococcus aureus NCTC 4163, Staphylococcus aureus ATCC 25923, Staphylococcus aureus ATCC 6538, Staphylococcus aureus ATCC 29213, Staphylococcus epidermidis ATCC 12228, Staphylococcus epidermidis ATCC 35984, Gram-negative: Escherichia coli ATCC 25922, Pseudomonas aeruginosa ATCC 15442. Clinical strains of bacteria used in this study: Gram-positive: Staphylococcus epidermidis 5253, Staphylococcus epidermidis 4243, Staphylococcus aureus […], Staphylococcus aureus […] and Gram-negative: Escherichia coli 520, Escherichia coli 600, Klebsiella pneumoniae 510 and Pseudomonas aeruginosa 659 were obtained from the collection of the Department of Pharmaceutical Microbiology, Medical University of Warsaw, Poland and they were isolated from different biological materials taken from the patients hospitalized in the Warsaw Medical University hospitals. Antimicrobial activity was examined by the minimal inhibitory concentration (MIC) method under standard procedures provided by CLSI with some modifications. MIC was determined by the two-fold serial broth microdilution method in 96-well microtitration plates using Mueller-Hinton II broth medium (Becton Dickinson, Franklin Lakes, NJ, USA). The final inoculum of all studied bacteria was 10^6 CFU/mL (colony forming unit per milliliter). The stock solution of tested compounds was prepared in dimethyl sulfoxide (DMSO) and diluted to a maximum of 1% of solvent content with a sterile medium.

[2] = system: P. aeruginosa ATCC 15442; test: MIC broth microdilution, standard strain; format: cell-based; conditions: Pseudomonas aeruginosa, ATCC15442; P. aeruginosa ATCC 15442, standard strain, 19 h at 35 °C; read-out: minimal inhibitory concentration (MIC)
Procedure: as §1

[3] = system: S. aureus ATCC 25923; test: MIC broth microdilution, standard strain; format: cell-based; conditions: Staphylococcus aureus, ATCC25923; S. aureus ATCC 25923, standard strain, 19 h at 35 °C; read-out: minimal inhibitory concentration (MIC)
Procedure: as §1

[4] = system: S. aureus NCTC 4163; test: MIC broth microdilution, standard strain; format: cell-based; conditions: Staphylococcus aureus, NCTC4163; S. aureus NCTC 4163, standard strain, 19 h at 35 °C; read-out: minimal inhibitory concentration (MIC)
Procedure: as §1

[5] = system: S. aureus ATCC 29213; test: MIC broth microdilution, standard strain; format: cell-based; conditions: Staphylococcus aureus, ATCC29213; S. aureus ATCC 29213, standard strain, 19 h at 35 °C; read-out: minimal inhibitory concentration (MIC)
Procedure: (§2) All synthesized compounds were tested in vitro against a set of bacteria, including representative standard Gram-positive and Gram-negative rods. Compounds were screened for their minimal inhibitory concentrations (MICs). […] The antimicrobial assays were conducted using reference strains of bacteria derived from international microbe collections: American Type Culture Collection (ATCC) and National Collection of Type Culture (NCTC). The following standard strains of bacteria were used: Gram-positive-Staphylococcus aureus NCTC 4163, Staphylococcus aureus ATCC 25923, Staphylococcus aureus ATCC 6538, Staphylococcus aureus ATCC 29213, Staphylococcus epidermidis ATCC 12228, Staphylococcus epidermidis ATCC 35984, Gram-negative: Escherichia coli ATCC 25922, Pseudomonas aeruginosa ATCC 15442. Clinical strains of bacteria used in this study: Gram-positive: Staphylococcus epidermidis 5253, Staphylococcus epidermidis 4243, Staphylococcus aureus […], Staphylococcus aureus […] and Gram-negative: Escherichia coli 520, Escherichia coli 600, Klebsiella pneumoniae 510 and Pseudomonas aeruginosa 659 were obtained from the collection of the Department of Pharmaceutical Microbiology, Medical University of Warsaw, Poland and they were isolated from different biological materials taken from the patients hospitalized in the Warsaw Medical University hospitals. […] MIC was determined by the two-fold serial broth microdilution method in 96-well microtitration plates using Mueller-Hinton II broth medium (Becton Dickinson, Franklin Lakes, NJ, USA). The final inoculum of all studied bacteria was 10^6 CFU/mL (colony forming unit per milliliter). The stock solution of tested compounds was prepared in dimethyl sulfoxide (DMSO) and diluted to a maximum of 1% of solvent content with a sterile medium.

[6] = system: S. aureus ATCC 6538; test: MIC broth microdilution, standard strain; format: cell-based; conditions: Staphylococcus aureus, ATCC6538; S. aureus ATCC 6538, standard strain, 19 h at 35 °C; read-out: minimal inhibitory concentration (MIC)
Procedure: as §2

[7] = system: S. epidermidis ATCC 12228; test: MIC broth microdilution, standard strain; format: cell-based; conditions: Staphylococcus epidermidis, ATCC12228; S. epidermidis ATCC 12228, standard strain, 19 h at 35 °C; read-out: minimal inhibitory concentration (MIC)
Procedure: as §2

[8] = system: S. epidermidis ATCC 35984; test: MIC broth microdilution, standard strain; format: cell-based; conditions: Staphylococcus epidermidis, ATCC35984; S. epidermidis ATCC 35984, standard strain, 19 h at 35 °C; read-out: minimal inhibitory concentration (MIC)
Procedure: as §2

[9] = biological target: S. aureus topoisomerase IV (Staphylococcus aureus, UniProt P0C1S7+P0C1U9); test: Topoisomerase IV decatenation assay; format: biochemical; conditions: decatenation of kinetoplast DNA, read-out: IC50 ± S.E.M. for Topoisomerase IV (converted)
Procedure: Description related to conducted biological studies including cell culture, suitable conditions, and methodology was presented in our previous paper.
Figure 1 The effect of tested compounds on S. aureus topoisomerase IV activity. Decreasing amounts of 1, 2, or 3 were incubated with 200 ng kinetoplast DNA and run-on agarose gel. Lane: 1–5: compound 3 at concentrations 64, 32, 8, 2, 0.5 μg/mL, respectively. Lane: 6–10: compound 2 at concentrations 64, 32, 8, 2, 0.5 μg/mL, respectively. Lane: 11–15: compound 1 at concentrations 64, 32, 8, 2, 0.5 μg/mL, respectively.

Row | MIC [1] [µg/mL] | MIC [2] [µg/mL] | MIC [3] [µg/mL] | MIC [4] [µg/mL] | MIC [5] [µg/mL] | MIC [6] [µg/mL] | MIC [7] [µg/mL] | MIC [8] [µg/mL] | Structure (SMILES) | IC50 [9] [nM]
1 | > 256 | > 256 | > 256 | > 256 | > 256 | > 256 | > 256 | > 256 | CC1=C(C)C2(C)CC1(C)C1C(=O)N(Nc3nnnn3-c3ccc(C)cc3)C(=O)C12 (centres unmarked) [Compound 5, 4,5,6,7-Tetramethyl-2-((1-(p-tolyl)-1H-tetrazol-5-yl)amino)-3a,4,7,7a-tetrahydro-1H-4,7-methanoisoindole-1,3(2H)-dione] | 
2 | 128 (≈ 300 µM) | > 256 | 32 (≈ 75 µM) | 32 (≈ 75 µM) | 64 (≈ 150 µM) | 32 (≈ 75 µM) | 128 (≈ 300 µM) | 32 (≈ 75 µM) | CC(C)C12C=CC(C)(CC1)C1C(=O)N(Nc3nnnn3-c3ccccc3Cl)C(=O)C12 (centres unmarked) [Compound 7, 2-((1-(2-Chlorophenyl)-1H-tetrazol-5-yl)amino)-4-isopropyl-7-methyl-3a,4,7,7a-tetrahydro-1H-4,7-ethanoisoindole-1,3(2H)-dione] | 
3 | > 256 | > 256 | 128 (≈ 326 µM) | 128 (≈ 326 µM) | 128 (≈ 326 µM) | 128 (≈ 326 µM) | 256 (≈ 652 µM) | 128 (≈ 326 µM) | CC(C)C12C=CC(C)(CC1)C1C(=O)N(Nc3nnnn3-c3ccccc3)C(=O)C12 (centres unmarked) [Compound 11, 4-Isopropyl-7-methyl-2-((1-phenyl-1H-tetrazol-5-yl)amino)-3a,4,7,7a-tetrahydro-1H-4,7-ethanoisoindole-1,3(2H)-dione] | 

Second part, the molecule before the results:

Row | Structure (SMILES) | MIC [1] [µg/mL] | MIC [2] [µg/mL] | MIC [3] [µg/mL] | MIC [4] [µg/mL] | MIC [5] [µg/mL] | MIC [6] [µg/mL] | MIC [7] [µg/mL] | MIC [8] [µg/mL] | IC50 [9] [nM]
4 | O=C(O)c1cn(C2CC2)c2cc(N3CCNCC3)c(F)cc2c1=O [Ciprofloxacin, reference compound] | 0.015 (≈ 0.0453 µM) | 0.125 (≈ 0.377 µM) | 0.5 (≈ 1.51 µM) | 0.125 (≈ 0.377 µM) |  |  |  |  | 
5 | COc1c(N2C[C@@H]3CCCN[C@@H]3C2)c(F)cc2c(=O)c(C(=O)O)cn(C3CC3)c12 [Moxifloxacin, reference compound] |  |  |  |  |  |  |  |  | 2240
